Patent publication US11225477B2, “Inhibitors of influenza virus replication, application methods and uses thereof” (SUNSHINE LAKE PHARMA CO., LTD., priority 2015, dated 2022)

Columns and labels:
[1] = SD, rat, in vivo, po, 5 mg/kg
Protocol: (§1) The compounds disclosed herein were administered in form of a saline solution containing 5% DMSO, 5% Kolliphor HS 15 and 90% Saline. […] Plasma samples were collected and stored at −20° C. or −70° C. until LC/MS/MS analysis.

virus H1N1 A/Weiss/43 [2] = assay: microbe, parasite or virus in culture; format: cell-based; settings: Influenza A virus, 120 h; MDCK cells, H1N1 A/Weiss/43, Scheme 2: 8 concentrations 50 nM to 0.023 nM, 5 days, CCK-8
in vivo = settings: SD, rat
Protocol: as §1

virus H1N1 A/Weiss/43 [3] = assay: microbe, parasite or virus in culture; format: cell-based; settings: Influenza A virus, 120 h; MDCK cells, H1N1 A/Weiss/43, Scheme 1: 8 concentrations 100 μM to 0.05 μM, 5 days, CCK-8

| SMILES | F [1] [%] | EC50 (virus H1N1 A/Weiss/43 [2]) [nM] | AUC(0-inf) (in vivo; iv, 1 mg/kg) [ng·h/mL] | AUC(0-t) (in vivo; iv, 1 mg/kg) [ng·h/mL] | Cmax (in vivo; iv, 1 mg/kg) [ng/mL] | Tmax (in vivo; iv, 1 mg/kg) [min] | Vd (in vivo; iv, 1 mg/kg) [L/kg] | clearance (in vivo; iv, 1 mg/kg) [mL/min/kg] | half-life (in vivo; iv, 1 mg/kg) [min] | AUC(0-inf) (in vivo; po, 5 mg/kg) [ng·h/mL] | AUC(0-t) (in vivo; po, 5 mg/kg) [ng·h/mL] | Cmax (in vivo; po, 5 mg/kg) [ng/mL] | Tmax (in vivo; po, 5 mg/kg) [min] | half-life (in vivo; po, 5 mg/kg) [min] | EC50 (virus H1N1 A/Weiss/43 [3]) [nM] |
| --- | --- | --- | --- | --- | --- | --- | --- | --- | --- | --- | --- | --- | --- | --- | --- |
| O=C(O)C1C2CCC(CC2)C1Nc1cc(-c2ccccc2)nc(-c2c[nH]c3ncc(F)cc23)n1 (racemic) [Example 4, (+/−)-trans-3-((2-(5-fluoro-1H-pyrrolo[2,3-b]pyridin-3-yl)-6-phenylpyrimidin-4-yl)amino)bicyclo[2.2.2]octane-2-carboxylic Acid] | 56.4 | 0.2 | 4610 | 4540 | 5980 | 4.98 | 0.412 | 3.66 | 163 | 12800 | 12800 | 3480 | 40 | 178 | < 50 |
| COc1ccc(-c2cc(NC3C4CCC(CC4)C3C(=O)O)nc(-c3c[nH]c4ncc(F)cc34)n2)cc1 (racemic) [Example 3, (+/−)-trans-3-((2-(5-fluoro-1H-pyrrolo[2,3-b]pyridin-3-yl)-6-(4-methoxyphenyl)pyrimidin-4-yl)amino)bicyclo[2.2.2]octane-2-carboxylic Acid] |  |  |  |  |  |  |  |  |  |  |  |  |  |  | < 50 |
| O=C(O)C1C2CCC(CC2)C1Nc1nc(-c2c[nH]c3ncc(F)cc23)nc2c1CCCC2 (racemic) [Example 2, (+/−)-trans-3-((2-(5-fluoro-1H-pyrrolo[2,3-b]pyridin-3-yl)-5,6,7,8-tetrahydroquinazolin-4-yl)amino)bicyclo[2.2.2]octane-2-carboxylic Acid] | 47.1 |  | 3470 | 3440 | 4910 | 4.98 | 1.26 | 4.9 | 63.6 | 8180 | 8080 | 4020 | 25 | 79.8 | < 50 |
| O=C(O)C1C2CCC(CC2)C1Nc1nc(-c2c[nH]c3ncc(F)cc23)nc2ccccc12 (racemic) [Example 1, (+/−)-trans-3-((2-(5-fluoro-1H-pyrrolo[2,3-b]pyridin-3-yl)quinazolin-4-yl)amino)bicyclo[2.2.2]octane-2-carboxylic Acid] | 42.1 |  | 5020 | 4960 | 5900 | 4.98 | 1.03 | 3.42 | 67.8 | 10600 | 10100 | 3130 | 50 | 88.8 | < 50 |
| O=C(O)C1C2CCC(CC2)C1Nc1cc(-c2ccc(F)cc2)nc(-c2c[nH]c3ncc(F)cc23)n1 (racemic) [Example 6, (+/−)-trans-3-((2-(5-fluoro-1H-pyrrolo[2,3-b]pyridin-3-yl)-6-(4-fluorophenyl)pyrimidin-4-yl)amino)bicyclo[2.2.2]octane-2-carboxylic Acid] |  |  |  |  |  |  |  |  |  |  |  |  |  |  | < 50 |
| Cn1ccc2c(NC3C4CCC(CC4)C3C(=O)O)nc(-c3c[nH]c4ncc(F)cc34)nc21 (racemic) [Example 65, (+/−)-trans-3-((2-(5-fluoro-1H-pyrrolo[2,3-b]pyridin-3-yl)-7-methyl-7H-pyrrolo[2,3-d]pyrimidin-4-yl)amino)bicyclo[2.2.2]octane-2-carboxylic Acid] | 44.9 | 0.66 | 5360 | 5340 | 6830 | 4.98 | 0.168 | 3.13 | 57.9 | 12100 | 12000 | 7940 | 25 | 68.4 |  |
